Laboratory results: patent US20240150356A1, “Pyrimidine amide compounds and use thereof” (ALPHALA CO., LTD., priority 2019, published 2024)
Read-outs that look alike come from different tables or passages of the source.

Legend:
Type in all cases: cell-based
[1] = test system: Hep3B cells (hepatocellular carcinoma cell line); assay: In vitro MTS cell viability assay (NCI-60 methodology), Hep3B; details: Homo sapiens, 48 h, 2 days drug incubation, 50% reduction vs time zero, read-out: Hep3B LC50
Summary of the method: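 Hep3B cells given five 2-fold dilutions of compound for 2 days, with viability by MTS measured at time zero and at end. LC50 is the concentration giving a 50% fall in viable cells relative to the start of treatment, per NCI-60 formula.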

[2] = test system: NCI-H460 (human lung cancer cell line); assay: In vitro MTS cell viability assay (NCI-60 methodology), NCI-H460; details: NCI-H460 cells, read-out: NCI-H460 LC50
Summary of the method: (§1)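 NCI-60 style: compound added 24 h post-plating at five 2-fold dilutions plus DMSO control, then 2 days' incubation, MTS read-out. Time-zero plate gives Tz; LC50 is the concentration where [(Ti−Tz)/Tz]×100=−50.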

[3] = test system: SW480 (colon adenocarcinoma cell line); assay: In vitro MTS cell viability assay (NCI-60 methodology), SW480; details: Homo sapiens, SW480 cells, read-out: SW480 LC50
Summary of the method: as §1

Compound	LC50 ([1]; Table 6, MTS) [nM]	CC50 [2] [nM]	CC50 [3] [nM]	LC50 ([1]; Table 7, MTS) [nM]	LC50 ([1]; Table 9, MTS) [nM]	LC50 ([1]; Table 10, MTS) [nM]
O=C(Nc1nc(-c2ccc(F)nc2)nc2c1cnn2-c1ccc(F)cc1)c1ccc([N+](=O)[O-])s1 [Compound 6-116, N-(1-(4-fluorophenyl)-6-(6-fluoropyridin-3-yl)-1H-pyrazolo[3,4-d]pyrimidin-4-yl)-5-nitrothiophene-2-carboxamide]	90	500	550			
O=C(Nc1nc(-c2cccc(Cl)c2)nc2c1cnn2-c1ccc(F)cc1)c1ccc([N+](=O)[O-])s1 [Compound 6-117, N-(6-(3-chlorophenyl)-1-(4-fluorophenyl)-1H-pyrazolo[3,4-d]pyrimidin-4-yl)-5-nitrothiophene-2-carboxamide]	150	600	910			
O=C(Nc1nc(-c2ccc(Cl)cc2)nc2c1cnn2-c1ccc(F)cc1)c1ccc([N+](=O)[O-])s1 [Compound 6-118, N-(6-(chlorophenyl)-1-(4-fluorophenyl)-1H-pyrazolo[3,4-d]pyrimidin-4-yl)-5-nitrothiophene-2-carboxamide]	250	980	2180			
O=C(Nc1nc(-c2ccc(Cl)nc2)nc2c1cnn2-c1ccc(F)cc1)c1ccc([N+](=O)[O-])s1 [Compound 6-119, N-(6-(6-chloropyridin-3-yl)-1-(4-fluorophenyl)-1H-pyrazolo[3,4-d]pyrimidin-4-yl)-5-nitrothiophene-2-carboxamide]	80	530	690			
Cc1ccc(-c2nc(NC(=O)c3ccc([N+](=O)[O-])s3)c3cnn(-c4ccc(F)cc4)c3n2)cn1 [Compound 6-120, N-(1-(4-fluorophenyl)-6-(6-methylpyridin-3-yl)-1H-pyrazolo[3,4-d]pyrimidin-4-yl)-5-nitrothiophene-2-carboxamide]	250	1340	510			
COc1ccc(-c2nc(NC(=O)c3ccc([N+](=O)[O-])s3)c3cnn(-c4ccc(F)cc4)c3n2)cn1 [Compound 6-121, N-(1-(4-fluorophenyl)-6-(6-methoxypyridin-3-yl)-1H-pyrazolo[3,4-d]pyrimidin-4-yl)-5-nitrothiophene-2-carboxamide]	70	480	630			
O=C(Nc1nc(-c2ccc(F)c(F)c2)nc2c1cnn2-c1ccc(F)cc1)c1ccc([N+](=O)[O-])s1 [Compound 6-125, N-(6-(3,4-difluorophenyl)-1-(4-fluorophenyl)-1H-pyrazolo[3,4-d]pyrimidin-4-yl)-5-nitrothiophen-2-carboxamide]	100	350	2280			
O=C(Nc1nc(-c2ccc(Cl)c(F)c2)nc2c1cnn2-c1ccc(F)cc1)c1ccc([N+](=O)[O-])s1 [Compound 6-127]	150	450	1060			
O=C(Nc1nc(-c2ccc(Cl)cc2F)nc2c1cnn2-c1ccc(F)cc1)c1ccc([N+](=O)[O-])s1 [Compound 6-128, N-(6-(4-chloro-2-fluorophenyl)-1-(4-fluorophenyl)-1H-pyrazolo[3,4,d]pyrimidin-4-yl)-5-nitrothiophene-2-carboxamide]	70	310	570			
CN(C)CCOc1ccc(-c2nc(NC(=O)c3ccc([N+](=O)[O-])s3)c3cnn(-c4ccc(F)cc4)c3n2)cn1 [Compound 6-130, N-(6-(6-(2-(dimethylamino)ethoxy)pyridin-3-yl)-1-(4-fluorophenyl)-1H-pyrazolo[3,4-d]pyrimidin-4-yl)-5-nitrothiophene-2-carboxamide]	260	3810	2900			
CCCOc1ccc(-c2nc(NC(=O)c3ccc([N+](=O)[O-])s3)c3cnn(-c4ccc(F)cc4)c3n2)cn1 [Compound 6-133, N-(1-(4-fluorophenyl)-6-(6-propoxypyridin-3-yl)-1H-pyrazolo[3,4-d]pyrimidin-4-yl)-5-nitrothiophene-2-carboxamide]	160	490	430			
COCCOc1ccc(-c2nc(NC(=O)c3ccc([N+](=O)[O-])s3)c3cnn(-c4ccc(F)cc4)c3n2)cn1 [Compound 6-135, N-(1-(4-fluorophenyl)-6-(6-(2-methoxyethoxy)pyridin-3-yl)-1H-pyrazolo[3,4-d]pyrimidin-4-yl)-5-nitrothiophene-2-carboxamide]	220	560	690			
O=C(Nc1nc(-c2ccc(F)cc2)nc2c1cnn2-c1ccc(C(F)(F)F)cn1)c1ccc([N+](=O)[O-])s1 [Compound 7-1, N-(6-(4-fluorophenyl)-1-(5-(trifluoromethyl)pyridin-2-yl)-1H-pyrazolo[3,4-d]pyrimidin-4-yl)-5-nitrothiophene-2-carboxamide]		8630	> 20000	260		
O=C(Nc1nc(-c2ccc(Cl)cc2)nc2c1cnn2-c1ccc(C(F)(F)F)cn1)c1ccc([N+](=O)[O-])s1 [Compound 7-3, N-(6-(4-chlorophenyl)-1-(5-(trifluoromethyl)pyridin-2-yl)-1H-pyrazolo[3,4-1]pyrimidin-4-yl)-5-nitrothiophene-2-carboxamide]		400	530	130		
COC(=O)c1ccc(-c2nc(NC(=O)c3ccc([N+](=O)[O-])s3)c3cnn(C4CCN(C(=O)OC(C)(C)C)CC4)c3n2)cc1 [Compound 9-3, tert-butyl 4-(6-(4-(methoxycarbonyl)phenyl)-4-(5-nitrothiophene-2-carboxamido)-1H-pyrazolo[3,4-d]pyrmidin-1-yl)piperidine-1-carboxylate]		1220	2720		420	
CC(C)(C)OC(=O)N1CCC(n2ncc3c(NC(=O)c4ccc([N+](=O)[O-])s4)nc(-c4ccc(Cl)cc4)nc32)CC1 [Compound 9-5, tert-butyl 4-(6-(4-chlorophenyl)-4-(5-nitrothiophene-2-carboxamido)-1H-pyrazolo [3,4-d]pyrimidin-1-yl)piperidine-1-carboxylate]		1300	2780		450	
O=C(Nc1nc(-c2ccc(F)cc2)nc2c1cnn2C1CCCCC1)c1ccc([N+](=O)[O-])s1 [Compound 10-13, N-(1-cyclohexyl-6-(4-fluorophenyl)-1H-pyrazolo[3,4-d]pyrimidin-4-yl)-5-nitrothiophene-2-carboxamide]		2620	1730			700
O=C(Nc1nc(-c2ccc(F)nc2)nc2c1cnn2C1CCCCC1)c1ccc([N+](=O)[O-])s1 [Compound 10-14, N-(1-cyclohexyl-6-(6-fluoropyridin-3-yl)-1H-pyrazolo[3,4-d]pyrimidin-4-yl)-5-nitrothiophene-2-carboxamide]		910	1710			890
O=C(Nc1nc(-c2ccc(Cl)nc2)nc2c1cnn2C1CCCCC1)c1ccc([N+](=O)[O-])s1 [Compound 10-18, N-(6-(6-chloropyridin-3-yl)-1-cyclohexyl-1H-pyrazolo[3,4-d]pyrimidin-4-yl)-5-nitrothiophene-2-carboxamide]		850	950			680
CCOc1ccc(-c2nc(NC(=O)c3ccc([N+](=O)[O-])s3)c3cnn(C4CCCCC4)c3n2)cn1 [Compound 10-23, N-(1-cyclohexyl-6-(6-ethoxypyridin-3-yl)-1H-pyrazolo[3,4-d]pyrimidin-4-yl)-5-nitrothiophene-2-carboxamide]		3010	1660			570
COC(=O)c1ccc(-c2nc(NC(=O)c3ccc([N+](=O)[O-])s3)c3cnn(C4CCCCC4)c3n2)cc1 [Compound 10-32, methyl 4-(1-cyclohexyl-4-(5-nitrothiophene-2-carboxamido)-1H-pyrazolo[3,4-d]pyrmidin-6-yl)benzoate]		1720	1210			400
O=C(Nc1nc(-c2ccc(F)c(F)c2)nc2c1cnn2C1CCCCC1)c1ccc([N+](=O)[O-])s1 [Compound 10-40, N-(1-cyclohexyl-6-(3,4-difluorophenyl)-1H-pyrazolo[3,4-d]pyrimidin-4-yl)-5-nitrothiophene-2-carboxamide]		1160	1040			320
O=C(Nc1nc(-c2ccc(F)nc2)nc2c1cnn2C1CCC(F)(F)CC1)c1ccc([N+](=O)[O-])s1 [Compound 10-55, N-(1-(4,4-difluorocyclohexyl)-6-(6-fluoropyridin-3-yl)-1H-pyrazolo[3,4-d]pyrimidin-4-yl)-5-nitrothiophene-2-carboxamide]		940	1060			710
O=C(Nc1nc(-c2ccc(Cl)nc2)nc2c1cnn2C1CCC(F)(F)CC1)c1ccc([N+](=O)[O-])s1 [Compound 10-57, N-(6-(6-chloropyridin-3-yl)-1-(4,4-difluorocyclohexyl)-TH-pyrazolo[3,4-d]pyrimidin-4-yl)-5-nitrothiophene-2-carboxamide]		1300	1340			570
